Measured values: patent US7060673B2, “Fusion peptide of human parathyroid hormone derived peptide and tat peptide, preparation thereof, and skin slimming cosmetic composition comprising the same” (LG Household and Health Care Ltd., priority 2001, dated 2006)

Tests used:
[1] = tested on: 3T3-L1 cell differentiated into adipocyte; assay: Lipolysis effects test (glycerol secretion by differentiated adipocytes); conditions: 24 hours, absorbency at 540 nm
[2] = tested on: healthy adult women with local obesity or cellulite inside of a thigh; conditions: O/W emulsion coated on one leg for one month, control emulsion on the other leg; 5 women
Protocol: In order to examine slimming effects, clinical tests were conducted on 5 healthy adult women of ages 18˜46 with local obesity or cellulite inside of a thigh (Method of testing primary irritant substances 38(187): pp1500–1541).
The fusion peptide prepared in Example 1 was prepared in the form of an O/W emulsion and used in the test. A control (O/W emulsion without sample) was coated on one leg, and an O/W emulsion comprising the compound of Chemical Formula 1 of the present invention was coated on the other leg, for one month, and then the thickness of the lipid layer was quantified.

Compound	Lipolysis increase rate (%) ([1]; concentration 10^−5 M)	Lipolysis increase rate (%) ([1]; concentration 10^−6 M)	Lipolysis increase rate (%) ([1]; concentration 10^−7 M)	Lipolysis increase rate (%) ([1]; concentration 10^−8 M)	lipid layer decrease [2] [%]	Lipolysis increase rate (%) ([1]; concentration 10^−5 M, listed as compound represented by the Chemical Formula 1)
CC(C)NCC(O)c1ccc(O)c(O)c1 (stereo not shown) [Isoproterenol, isoproterenol, reference compound]	12.5	39.0	34.5	17.3	–	–
KKKKKKKKKGKH	43.4	10.3	17.4	8.6	18	43
